Measurements reported in PMC12298822 (Molecules, 2025).

Key:
[1] = cited from earlier work
[2] = 100 mg dose; cited from earlier work
[3] = Stability of sitagliptin in human plasma samples under storage and handling conditions; format: in vitro ADME
Protocol: (§1) Human plasma samples were removed from a −70 °C deep freezer and thawed at room temperature. After vortexing and centrifugation, 100 µL of plasma was transferred into a glass tube. To this, 20 µL of the IS (1000 ng/mL) was added, followed by the addition of 2 mL of MTBE as the extraction solvent. The mixture was vortexed vigorously for 10 min and centrifuged at 1699 g for 10 min at 4 °C. The upper organic layer (2 mL) was carefully transferred to a new tube and evaporated to dryness under a nitrogen stream at 40 °C. The dried residue was reconstituted with a total volume of 1 mL of a reconstitution solvent composed of 0.01% formic acid in DW and 100% ACN (1:1, v/v), vortexed for 10 min, and centrifuged again at 1699× g. A 5 µL aliquot of the clear supernatant was injected into the LC–MS/MS system for analysis.
The stability of both stock and working solutions was evaluated at low and high QC levels (n = 3) under storage conditions of room temperature (25 °C) for 3 h and −20 °C for 7 h. All results were within the acceptable deviation limit of ±15% from the nominal concentrations. To assess the plasma stability of the analyte, low, medium, and high QC levels (n = 3) were tested under various conditions, including refrigerated storage at 4 °C for 24 h, deep-freezing at −70 °C for 7 h, three freeze–thaw cycles (between −70 °C and room temperature), and storage in the autosampler at 10 °C for 30 h. All measured concentrations under these conditions met the predefined acceptance criteria of ±15%, confirming the robustness and reliability of the analytical method.

[4] = Pharmacokinetic study after a single oral 100 mg sitagliptin tablet in healthy Korean male subjects (LC-MS/MS of plasma); format: in vivo, human; conditions: single oral 100 mg tablet, fasting
Protocol: as §1
This study procedures were conducted with the principles of the Helsinki Declaration (World Medical Association Declaration of Helsinki 2000) and Korean Good Clinical Practice guidelines. The study was approved by the Institutional Review Board (IRB) of Kyung Hee University Hospital (IRB No. KHUH 2023-07-039; approval date: 20 October 2023). […] Blood samples were collected using EDTA-K2 anticoagulant tubes at various time points: pre-dose (0 h), and at 0.5, 1, 1.5, 2, 2.5, 3, 4, 6, 8, 16, 24, and 48 h following administration. Once collected, the blood samples were centrifuged at 3000 rpm for 10 min to separate the plasma, which was then transferred to labeled tubes and stored at −70 °C until analysis. All clinical procedures, including dosing, sampling, and analysis, were conducted consistently across all subjects.
Pharmacokinetic parameters such as Cmax (maximum plasma concentration), Tmax (time to reach Cmax), T1/2 (elimination half-life), and CL/F (apparent oral clearance) were determined from individual plasma concentration–time profiles. Non-compartmental analysis for extravascular administration was performed using BA Cal 2007 software (MFDS, version 1.0.0). This analysis calculated parameters including AUClast (area under the concentration–time curve from 0 to 48 h) and AUCinf (area under the curve extrapolated to infinity). The statistical analysis of the pharmacokinetic data was conducted using K-BE Test II software (version 2.0.2), which was developed and distributed by the MFDS [26].

[5] = cited from earlier work; remark: listed apart in the source
[6] = Stability of stock and working solutions; format: physicochemical
Protocol: These stock solutions were diluted with 50% acetonitrile to prepare working standard solutions. The working solutions’ calibration curve (CC) concentrations were set at 50, 100, 500, 1000, 2500, 5000, and 10,000 ng/mL, while the quality control (QC) concentrations were 150, 3000, and 8000 ng/mL. The IS concentration was prepared at 1000 ng/mL. All working stock solutions were prepared and stored at −20 °C until use. […] Consequently, the final calibration curve range was 5–1000 ng/mL. […] All results were within the acceptable deviation limit of ±15% from the nominal concentrations. To assess the plasma stability of the analyte, low, medium, and high QC levels (n = 3) were tested under various conditions, including refrigerated storage at 4 °C for 24 h, deep-freezing at −70 °C for 7 h, three freeze–thaw cycles (between −70 °C and room temperature), and storage in the autosampler at 10 °C for 30 h. All measured concentrations under these conditions met the predefined acceptance criteria of ±15%, confirming the robustness and reliability of the analytical method.

SMILES: N[C@@H](CC(=O)N1CCn2c(nnc2C(F)(F)F)C1)Cc1cc(F)c(F)cc1F [Sitagliptin, 7-[(3R)-3-amino-1-oxo-4-(2,4,5-trifluorophenyl)butyl]-5,6,7,8-tetrahydro-3-(trifluoromethyl)]
- apparent volume of distribution [1]: approximately 198 L
- fraction of total clearance by hepatic metabolism (CYP3A4 and CYP2C8) [1]: < 16%
- oral bioavailability [1]: approximately 87%
- maximum concentration (Cmax) [2]: 327.98 ng/mL
- terminal half-life (T1/2) [2]: 8.92 h
- time to reach maximum concentration (Tmax) [2]: 2.68 h
- Plasma sample stability (%), mean ([3]; human plasma, deep freeze (7 h, −70 °C), 15 ng/mL): 99.61%
- Plasma sample stability (%), mean ([3]; human plasma, deep freeze (7 h, −70 °C), 300 ng/mL): 96.77%
- Plasma sample stability (%), mean ([3]; human plasma, deep freeze (7 h, −70 °C), 800 ng/mL): 97.96%
- Plasma sample stability (%), mean ([3]; human plasma, freeze–thaw (3 cycles), 15 ng/mL): 103.73%
- Plasma sample stability (%), mean ([3]; human plasma, freeze–thaw (3 cycles), 300 ng/mL): 98.57%
- Plasma sample stability (%), mean ([3]; human plasma, freeze–thaw (3 cycles), 800 ng/mL): 97.71%
- Plasma sample stability (%), mean ([3]; human plasma, refrigeration (7 h, 4 °C), 15 ng/mL): 100.61%
- Plasma sample stability (%), mean ([3]; human plasma, refrigeration (7 h, 4 °C), 300 ng/mL): 100.02%
- Plasma sample stability (%), mean ([3]; human plasma, refrigeration (7 h, 4 °C), 800 ng/mL): 96.29%
- Plasma sample stability (%), mean ([3]; human plasma, room temperature (7 h), 15 ng/mL): 102.57%
- Plasma sample stability (%), mean ([3]; human plasma, room temperature (7 h), 300 ng/mL): 97.43%
- Plasma sample stability (%), mean ([3]; human plasma, room temperature (7 h), 800 ng/mL): 96.99%
- Plasma sample stability (%), mean ([3]; processed (LLE) plasma sample, autosampler (30 h, 10 °C), 15 ng/mL): 105.20%
- Plasma sample stability (%), mean ([3]; processed (LLE) plasma sample, autosampler (30 h, 10 °C), 300 ng/mL): 97.37%
- Plasma sample stability (%), mean ([3]; processed (LLE) plasma sample, autosampler (30 h, 10 °C), 800 ng/mL): 96.83%
- half-life ([4]; human, plasma, n = 8, mean): 8.47 ± 3.08 h
- Cmax ([4]; human, n = 8, plasma, mean): 373 ng/mL
- Tmax ([4]; human, n = 8, plasma, mean): 2.06 h
- AUClast ([4]; n = 8, 0 to 48 h, mean): 2863.82 ng·h/mL
- AUCinf ([4]; n = 8, extrapolated to infinity, mean): 3010.56 ± 302.61 ng·h/mL
- binding to plasma proteins [5]: 38%
- Solution stability (%), mean ([6]; stock solution, room temperature (3 h), 15 ng/mL level, vs freshly prepared): 100.89%
- Solution stability (%), mean ([6]; stock solution, room temperature (3 h), 800 ng/mL level, vs freshly prepared): 99.25%
- Solution stability (%), mean ([6]; working solution, room temperature (7 h), 15 ng/mL level): 100.19%
- Solution stability (%), mean ([6]; working solution, room temperature (7 h), 800 ng/mL level): 95.93%
